According to the supplement of paper PMC10307832:

What was measured:
Assay in all cases: relative viability (nuclei count vs DMSO), 5 days (fraction); higher = more cells survive
EMC-BAC-2 = test system: EMC-BAC-2
Summary of the method: (§1)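 Nuclei were stained with Hoechst during a one-step fixation (final 0.05% Triton X-100, 1% formaldehyde, 1 ug/ml Hoechst) carried out 5 days after dosing, then counted on 4× images. The cells, lung cancer lines in 1536-well plates, had been dosed by pin tool the day after seeding with one drug alone or a fixed anchor-drug dose plus five library-drug doses (not always all listed) in √10 steps. Relative viability is the nuclei count in treated wells divided by that in vehicle wells, and each value is the median of duplicate plates.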

EPLC-272H = test system: EPLC-272H
Summary of the method: as §1

H3255 = test system: H3255
Summary of the method: as §1

HCC-44 = test system: HCC-44
Summary of the method: as §1

HCC-827 = test system: HCC-827
Summary of the method: as §1

LCLC-97TM1 = test system: LCLC-97TM1
Summary of the method: as §1

NCI-H1355 = test system: NCI-H1355
Summary of the method: as §1

NCI-H1395 = test system: NCI-H1395
Summary of the method: as §1

NCI-H1563 = test system: NCI-H1563
Summary of the method: as §1

NCI-H1651 = test system: NCI-H1651
Summary of the method: as §1

NCI-H1793 = test system: NCI-H1793
Summary of the method: as §1

NCI-H1944 = test system: NCI-H1944
Summary of the method: as §1

NCI-H1993 = test system: NCI-H1993
Summary of the method: as §1

NCI-H2085 = test system: NCI-H2085
Summary of the method: as §1

NCI-H2087 = test system: NCI-H2087
Summary of the method: as §1

NCI-H23 = test system: NCI-H23
Summary of the method: as §1

NCI-H2405 = test system: NCI-H2405
Summary of the method: as §1

NCI-H322M = test system: NCI-H322M
Summary of the method: as §1

NCI-H520 = test system: NCI-H520
Summary of the method: as §1

NCI-H650 = test system: NCI-H650
Summary of the method: as §1

SK-MES-1 = test system: SK-MES-1
Summary of the method: as §1

UMC-11 = test system: UMC-11
Summary of the method: as §1

C[C@@H]1CN(CC(=O)Nc2ccc3c(c2)Cc2cccc(-c4cc(=O)cc(N5CCOCC5)o4)c2S3)C[C@H](C)O1 + CS(=O)(=O)CCNCc1ccc(-c2ccc3ncnc(Nc4ccc(OCc5cccc(F)c5)c(Cl)c4)c3c2)o1 [Lapatinib] (partner 2 µM)
relative viability (EMC-BAC-2; first compound 0.04 µM): 0.903 | relative viability (EMC-BAC-2; first compound 0.1265 µM): 0.934 | relative viability (EMC-BAC-2; first compound 0.4 µM): 0.775 | relative viability (EMC-BAC-2; first compound 4 µM): 0.827 | relative viability (EPLC-272H; first compound 0.04 µM): 0.837 | relative viability (EPLC-272H; first compound 0.1265 µM): 1 | relative viability (EPLC-272H; first compound 0.4 µM): 1.01 | relative viability (EPLC-272H; first compound 4 µM): 0.783 | relative viability (H3255; first compound 0.04 µM): 0.221 | relative viability (H3255; first compound 0.1265 µM): 0.242 | relative viability (H3255; first compound 0.4 µM): 0.233 | relative viability (H3255; first compound 4 µM): 0.214 | relative viability (HCC-44; first compound 0.04 µM): 0.94 | relative viability (HCC-44; first compound 0.1265 µM): 1.02 | relative viability (HCC-44; first compound 0.4 µM): 1.07 | relative viability (HCC-44; first compound 4 µM): 0.922 | relative viability (HCC-827; first compound 0.04 µM): 0.172 | relative viability (HCC-827; first compound 0.1265 µM): 0.191 | relative viability (HCC-827; first compound 0.4 µM): 0.212 | relative viability (HCC-827; first compound 4 µM): 0.19 | relative viability (LCLC-97TM1; first compound 0.1265 µM): 0.851 | relative viability (LCLC-97TM1; first compound 0.4 µM): 0.867 | relative viability (LCLC-97TM1; first compound 4 µM): 0.858 | relative viability (NCI-H1355; first compound 0.04 µM): 0.713 | relative viability (NCI-H1355; first compound 0.1265 µM): 0.992 | relative viability (NCI-H1355; first compound 0.4 µM): 0.816 | relative viability (NCI-H1355; first compound 4 µM): 0.97 | relative viability (NCI-H1395; first compound 0.04 µM): 0.928 | relative viability (NCI-H1395; first compound 0.1265 µM): 1 | relative viability (NCI-H1395; first compound 0.4 µM): 1.06 | relative viability (NCI-H1395; first compound 4 µM): 0.93 | relative viability (NCI-H1563; first compound 0.04 µM): 0.834 | relative viability (NCI-H1563; first compound 0.1265 µM): 0.883 | relative viability (NCI-H1563; first compound 0.4 µM): 0.859 | relative viability (NCI-H1563; first compound 4 µM): 0.702 | relative viability (NCI-H1651; first compound 0.04 µM): 0.82 | relative viability (NCI-H1651; first compound 0.1265 µM): 0.889 | relative viability (NCI-H1651; first compound 0.4 µM): 0.78 | relative viability (NCI-H1651; first compound 4 µM): 0.795 | relative viability (NCI-H1793; first compound 0.04 µM): 0.809 | relative viability (NCI-H1793; first compound 0.1265 µM): 0.743 | relative viability (NCI-H1793; first compound 0.4 µM): 0.734 | relative viability (NCI-H1793; first compound 4 µM): 0.649 | relative viability (NCI-H1944; first compound 0.1265 µM): 0.803 | relative viability (NCI-H1944; first compound 0.4 µM): 0.977 | relative viability (NCI-H1944; first compound 4 µM): 0.876 | relative viability (NCI-H1993; first compound 0.04 µM): 0.862 | relative viability (NCI-H1993; first compound 0.1265 µM): 0.86 | relative viability (NCI-H1993; first compound 0.4 µM): 0.812 | relative viability (NCI-H1993; first compound 4 µM): 0.833 | relative viability (NCI-H2085; first compound 0.04 µM): 0.402 | relative viability (NCI-H2085; first compound 0.1265 µM): 0.742 | relative viability (NCI-H2085; first compound 0.4 µM): 0.624 | relative viability (NCI-H2085; first compound 4 µM): 0.58 | relative viability (NCI-H2087; first compound 0.04 µM): 1.06 | relative viability (NCI-H2087; first compound 0.1265 µM): 1.01 | relative viability (NCI-H2087; first compound 0.4 µM): 1.13 | relative viability (NCI-H2087; first compound 4 µM): 0.798 | relative viability (NCI-H23; first compound 0.04 µM): 0.886 | relative viability (NCI-H23; first compound 0.1265 µM): 1.16 | relative viability (NCI-H23; first compound 0.4 µM): 1.01 | relative viability (NCI-H23; first compound 4 µM): 1.04 | relative viability (NCI-H2405; first compound 0.04 µM): 0.879 | relative viability (NCI-H2405; first compound 0.1265 µM): 1.11 | relative viability (NCI-H2405; first compound 0.4 µM): 1.04 | relative viability (NCI-H2405; first compound 4 µM): 1.07 | relative viability (NCI-H322M; first compound 0.04 µM): 0.39 | relative viability (NCI-H322M; first compound 0.1265 µM): 0.587 | relative viability (NCI-H322M; first compound 0.4 µM): 0.626 | relative viability (NCI-H322M; first compound 4 µM): 0.535 | relative viability (NCI-H520; first compound 0.04 µM): 0.983 | relative viability (NCI-H520; first compound 0.1265 µM): 0.701 | relative viability (NCI-H520; first compound 0.4 µM): 0.682 | relative viability (NCI-H520; first compound 4 µM): 0.711 | relative viability (NCI-H650; first compound 0.04 µM): 0.583 | relative viability (NCI-H650; first compound 0.1265 µM): 0.852 | relative viability (NCI-H650; first compound 0.4 µM): 0.857 | relative viability (NCI-H650; first compound 4 µM): 0.697 | relative viability (SK-MES-1; first compound 0.04 µM): 0.463 | relative viability (SK-MES-1; first compound 0.1265 µM): 0.53 | relative viability (SK-MES-1; first compound 0.4 µM): 0.429 | relative viability (SK-MES-1; first compound 4 µM): 0.409 | relative viability (UMC-11; first compound 0.04 µM): 0.984 | relative viability (UMC-11; first compound 0.1265 µM): 0.927 | relative viability (UMC-11; first compound 0.4 µM): 1.1 | relative viability (UMC-11; first compound 4 µM): 0.694
